Measurements reported in BindingDB's records for doi:10.1016/j.bmcl.2003.08.040 (Toa Eiyo, 2003).

The compounds below were run against Chymotrypsinogen A (Bos taurus) (UniProt P00766) (assay: In vitro inhibitory activity against bovin chymotrypsin).

IC50, > 10 µM:
CC(=O)c1ccc(NS(=O)(=O)c2sc3ccc(F)cc3c2C)c(S(C)(=O)=O)c1 [5-Fluoro-3-methyl-benzo[b]thiophene-2-sulfonic acid (4-acetyl-2-methanesulfonyl-phenyl)-amide], COC(=O)c1ccc(NS(=O)(=O)c2sc3ccc(Cl)cc3c2C)c(S(C)(=O)=O)c1 [4-(5-Chloro-3-methyl-benzo[b]thiophene-2-sulfonylamino)-3-methanesulfonyl-benzoic acid methyl ester], COC(=O)c1ccc(NS(=O)(=O)c2sc3ccc(F)cc3c2C)c(S(C)(=O)=O)c1 [4-(5-Fluoro-3-methyl-benzo[b]thiophene-2-sulfonylamino)-3-methanesulfonyl-benzoic acid methyl ester]
